Structures are written as SMILES.

One series concerns myoblast C2C12. Briefly: Gene analysis (RNA-seq) in C-82 treated myoblasts. Type of series: cell-based, mouse. To be noted: C-82 treated C2C12. Here is the method: This Example investigated what gene modulation C-82 is involved with in myoblast C2C12 to identify a gene that is useful in the diagnosis or treatment of sarcopenia.
Gene analysis (RNA-seq) in C-82 treated myoblasts was performed by the same method as Example 2.

A further series relates to old mice. Description: Muscle mass by MRI (volume of right gastrocnemius muscle/soleus muscle), with/without treadmill exercise. It counts as in vivo, mouse. Here is the method:
OK-1 was then intraperitoneally administered to each mouse twice a week at 20 mg/kg/day over 8 weeks (i.e., until reaching 23 week old and 88 week old, respectively). Treadmill exercise was conducted three times a week at 8 m/minute for 5 minutes→15 m/minute for 35 minutes while administering OK-1 twice a week at 20 mg/kg/day over 5 weeks (i.e., until reaching 28 week old and 93 week old, respectively). The muscle mass was then measured with the following equipment and conditions through MRI (FIG. 1B). MRI (MRminiSA1545, Japan REDOX) (magnetic flux density: 1.5 tesla (permanent magnet) (temporal resolution: 100 ns) was used to capture images of the lower limbs of the mice. The recovered data was converted into dicom data, and the volume of right gastrocnemius muscle/soleus muscle was quantified with Osirix Lite.

For series [1], the system named is Diabetes mouse models (e.g., KK/TaJcl). Description: Diabetes mouse model. Type of series: in vivo. To be noted: administered versus non-administered group. As to the method: Diabetes mouse models (e.g., KK/TaJcl) were divided into two groups. OK was administered to one of the groups, and OK was not administered to the other group.
The nature of series [2]: Body weight and behavior during the dosing period. Type of series: in vivo, mouse. To be noted: intraperitoneal, twice a week over three months, 20 mg/kg/day; young and old mice. As to the method: OK-1 manufactured in Manufacturing Example 1 was intraperitoneally administered to young and old mice twice a week over three months. The dosage was 20 mg/kg/day.
Series [3] in a line: Blood (plasma) test of six markers with biochemical automatic analyzer. It counts as in vivo, mouse. Here is the method:
75-week old mice (C57B16/J) were purchased from Oriental Yeast. Various concentrations (0 mg/kg (control), 0.2 mg/kg, 2 mg/kg, 20 mg/kg, and 40 mg/kg) of OK-1 were administered twice a week for 12 weeks until reaching 87-week old. Blood (plasma) was then recovered, and the concentrations of the following six markers were measured using a biochemical automatic analyzer (JCA-BM6050, JEOL). • LDH: lactate dehydrogenase can predict a liver, myocardial, or skeletal muscle disorder, etc. A decrease in LDH is expected to have a therapeutic effect on acute hepatitis, chronic hepatitis, cirrhosis, liver cancer, and other liver diseases, acute myocardial infarction, congested heart failure, and other heart diseases, polymyositis, muscular dystrophy, and other muscular diseases, pernicious anemia, leukemia, hemolytic anemia, etc. • ALT: This is a biomarker that can predict a liver tissue disorder. A decrease in ALT is expected to have a therapeutic effect on acute hepatitis, chronic hepatitis, alcoholic hepatitis, cirrhosis, liver cancer, fatty liver, acute myocardial infarction and other heart diseases, progressive muscular dystrophy and other muscular diseases, etc. • TG: Neutral fat is used for predicting diabetes, obesity, or arteriosclerotic disease. A decrease in TG is expected to have a therapeutic effect on hyperchylomicronemia, LPL deficiency, diabetes, obesity, arteriosclerosis, gout, hypothyroidism, Cushing's syndrome, nephrotic syndrome, obstructive jaundice, acute/chronic pancreatitis, etc. • HDL-C: This is used as a marker for arteriosclerosis, diabetes, cirrhosis, etc., of HDL cholesterol. A decrease in HDL-C is expected to have a therapeutic effect on primary biliary cirrhosis and hyperthyroidism. • UN: Urea nitrogen is a biomarker that can predict dysfunction of kidney or urinary system. An increase in UN is expected to have a therapeutic effect on toxic hepatitis, fulminant hepatitis, end-stage of cirrhosis, diabetes insipidus, acromegaly, etc. • UA: Uric acid is a biomarker for kidney or liver function. An increase in UA is expected to have a therapeutic effect on cirrhosis, xanthinuria, Fanconi syndrome, Wilson's syndrome, glomerulonephritis, etc.

Where [4] appears, read: 75-week old mice, 0.2, 2, 20, 40 mg/kg twice a week for 12 weeks.
[5] abbreviates: at a specific OK-1 concentration, twice a week for 12 weeks.

Turning to `C[C@H]1[C@H]2N(C(=O)CN(C)N2C(=O)NCc2ccccc2)[C@@H](Cc2ccc(O)cc2)C(=O)N1Cc1cccc2cccnc12` [C-82, (6S,9S)—N-benzyl-6-(4-hydroxybenzyl)-2,9-dimethyl-4,7-dioxo-8-(quinolin-8-ylmethyl)hexahydro-2H-pyrazino[2,1-c][1,2,4]triazine-1(6H)-carboxamide], in the series on myoblast C2C12, the “gene group associated with C-82 (upstream transcription factor analysis)” value is “Nfkb1, Srebf2, Sp1, Trp53, Xbp1, Myod1, Srebf1, Jun, Stat3, Sp3, Myf6, Nr3c1, Foxo3, Nfe212, Myf5, Ahr, Ep300, Myog, and Usf2”; the “genes decreased significantly in myoblasts” value was found to be 611 genes; the “genes increased significantly in myoblasts” value was found to be 581 genes.

Turning to `C[C@H]1[C@H]2N(C(=O)CN(C)N2C(=O)NCc2ccccc2)[C@@H](Cc2ccc(OP(=O)(O)O)cc2)C(=O)N1Cc1cccc2cccnc12` [OK-1], in the series on old mice (20 mg/kg/day twice a week plus treadmill exercise three times a week over 5 weeks), the “muscle mass (MRI), combined use of administration with exercise” value was “muscle mass significantly recovers synergistically”. Moreover, the “muscle mass (MRI)” value in the series on old mice (intraperitoneal 20 mg/kg/day twice a week over 8 weeks, then 5 further weeks) is recorded as “increases muscle mass in old mice”. Further, in series [1], the “insulin secretion and insulin resistance” value is “at least one of insulin secretion and insulin resistance is improved”. Moreover, the “change in body weight and behavioral abnormality during the dosing period” value in series [2] is “a significant change in body weight and behavioral abnormality were not observed”. Moreover, the HDL-C concentration result in series [3] (0.2 to 40 mg/kg twice a week for 12 weeks) is reported as “A significant change was not observed”. Also, in series [3] (setting [4]), the LDH concentration entry is reported as “reduces the LDH concentration” and the UA concentration entry is “increases the UA concentration at all concentrations”. In series [3] (setting [5]), the ALT concentration entry is “a decrease in the ALT concentration”, the TG concentration result was “a decrease in TG concentration” and the UN concentration result is reported as “an increase in UN concentration”.

Source of the values: patent publication US20230390296A1, “NOVEL TREATMENT AND PREVENTION OF SARCOPENIA-RELATED DISEASES” (KEIO UNIVERSITY, priority 2020, published 2023).
